pIC50: −log10 of the molar value.
System: 317291-083-R-J1-PDC complex spheroid growth
Assay: Anticancer human tumor 317291-083-R-J1-PDC patient-derived soft tissue sarcoma cell line growth inhibition [Asc]
Settings: for pIC50: curve of first compound; for viability, T/C: stronger effect = lower value
How it was run: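 Spheroid model: tumor line + HUVEC + hMSC. Single agents and combinations; top conc. at/near clinical Cmax (10 microM if undetermined), half-log dilutions. DMSO stocks at 800-fold test concentration.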
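Further: compound exposure lasted seven days after spheroids formed for three days.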
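Wherever viability, T/C is given: 100% = DMSO vehicle control wells.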

Cc1nc(N2CCC3(CC2)COC(C)C3N)c(CO)nc1Sc1ccnc(N)c1Cl (configuration not stated) + CCN1C(C(=O)NC23CCC(C(=O)O)(CC2)CC3)C(c2cccc(Cl)c2F)C2(C(=O)Nc3cc(Cl)ccc32)C12CCCCC2
pIC50 (second compound 0.00949 µM): < 5.52 | pIC50 (second compound 0.03 µM): 5.55 | pIC50 (second compound 0.0949 µM): < 5.52 | pIC50 (second compound 0.3 µM): < 5.52 | pIC50 (second compound 0.949 µM): < 5.52 | pIC50 (second compound 3 µM): 5.56 | viability, T/C (second compound 0.00949 µM, first compound 0.00949 µM): 103% | viability, T/C (second compound 0.00949 µM, first compound 0.03 µM): 96% | viability, T/C (second compound 0.00949 µM, first compound 0.0949 µM): 94.9% | viability, T/C (second compound 0.00949 µM, first compound 0.3 µM): 74.2% | viability, T/C (second compound 0.00949 µM, first compound 0.949 µM): 95.7% | viability, T/C (second compound 0.00949 µM, first compound 3 µM): 53.6% | viability, T/C (second compound 0.03 µM, first compound 0.00949 µM): 108% | viability, T/C (second compound 0.03 µM, first compound 0.03 µM): 107% | viability, T/C (second compound 0.03 µM, first compound 0.0949 µM): 96.7% | viability, T/C (second compound 0.03 µM, first compound 0.3 µM): 90.8% | viability, T/C (second compound 0.03 µM, first compound 0.949 µM): 69% | viability, T/C (second compound 0.03 µM, first compound 3 µM): 49% | viability, T/C (second compound 0.0949 µM, first compound 0.00949 µM): 104% | viability, T/C (second compound 0.0949 µM, first compound 0.03 µM): 116% | viability, T/C (second compound 0.0949 µM, first compound 0.0949 µM): 92.5% | viability, T/C (second compound 0.0949 µM, first compound 0.3 µM): 78.9% | viability, T/C (second compound 0.0949 µM, first compound 0.949 µM): 70.8% | viability, T/C (second compound 0.0949 µM, first compound 3 µM): 69.4% | viability, T/C (second compound 0.3 µM, first compound 0.00949 µM): 120% | viability, T/C (second compound 0.3 µM, first compound 0.03 µM): 106% | viability, T/C (second compound 0.3 µM, first compound 0.0949 µM): 95.5% | viability, T/C (second compound 0.3 µM, first compound 0.3 µM): 97.9% | viability, T/C (second compound 0.3 µM, first compound 0.949 µM): 73.7% | viability, T/C (second compound 0.3 µM, first compound 3 µM): 56.1% | viability, T/C (second compound 0.949 µM, first compound 0.00949 µM): 86.1% | viability, T/C (second compound 0.949 µM, first compound 0.03 µM): 113% | viability, T/C (second compound 0.949 µM, first compound 0.0949 µM): 93.4% | viability, T/C (second compound 0.949 µM, first compound 0.3 µM): 84.8% | viability, T/C (second compound 0.949 µM, first compound 0.949 µM): 75.7% | viability, T/C (second compound 0.949 µM, first compound 3 µM): 59.2% | viability, T/C (second compound 3 µM, first compound 0.00949 µM): 82.2% | viability, T/C (second compound 3 µM, first compound 0.03 µM): 81.7% | viability, T/C (second compound 3 µM, first compound 0.0949 µM): 82.8% | viability, T/C (second compound 3 µM, first compound 0.3 µM): 82.3% | viability, T/C (second compound 3 µM, first compound 0.949 µM): 66.7% | viability, T/C (second compound 3 µM, first compound 3 µM): 48.5%
